Data published in ChEMBL document CHEMBL4229531, “Synthesis and evaluation of 1,2,3,4-tetrahydro-1-acridone analogues as potential dual inhibitors for amyloid-beta and tau aggregation” (Bioorg Med Chem, 2018).
Active and inactive are the calls of the source. The calls are words filed in the database; no cut-off is given here.

How the values were obtained:
[1] = biological target: T1, Amyloid-beta precursor protein (Homo sapiens, UniProt P05067); experiment: Inhibition of self-induced amyloid beta (1 to 42) (unknown origin) aggregation at 20 uM after 72 hrs by thioflavin T assay relative to control
T1 sequence (P05067 whole entry): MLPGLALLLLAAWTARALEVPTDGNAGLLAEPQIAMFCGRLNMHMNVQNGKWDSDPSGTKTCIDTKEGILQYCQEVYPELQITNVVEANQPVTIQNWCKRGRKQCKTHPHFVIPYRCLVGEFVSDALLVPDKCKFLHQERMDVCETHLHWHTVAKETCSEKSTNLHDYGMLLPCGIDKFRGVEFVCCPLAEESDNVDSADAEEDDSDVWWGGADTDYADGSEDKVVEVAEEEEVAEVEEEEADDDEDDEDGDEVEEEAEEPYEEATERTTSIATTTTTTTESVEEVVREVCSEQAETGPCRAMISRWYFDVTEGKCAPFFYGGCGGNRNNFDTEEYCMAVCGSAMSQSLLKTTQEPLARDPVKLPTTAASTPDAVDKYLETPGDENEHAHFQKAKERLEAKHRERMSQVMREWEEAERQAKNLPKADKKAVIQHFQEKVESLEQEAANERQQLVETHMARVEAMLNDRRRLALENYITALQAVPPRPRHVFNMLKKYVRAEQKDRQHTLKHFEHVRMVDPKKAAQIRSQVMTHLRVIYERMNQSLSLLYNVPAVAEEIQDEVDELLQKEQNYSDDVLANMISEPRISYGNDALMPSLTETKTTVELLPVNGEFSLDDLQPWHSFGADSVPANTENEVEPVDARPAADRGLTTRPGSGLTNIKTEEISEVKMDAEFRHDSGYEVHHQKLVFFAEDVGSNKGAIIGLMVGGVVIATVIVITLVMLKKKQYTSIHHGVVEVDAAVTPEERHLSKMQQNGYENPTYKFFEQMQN

[2] = species: Homo sapiens; experiment: Inhibition of recombinant full length tau 0N4R (unknown origin) aggregation expressed in Escherichia coli at 20 uM after 72 hrs by thioflavin S assay relative to control
[3] = Permeability of the compound at 100 ug/ml after 10 hrs by artificial membrane permeability assay; format: ADME; settings: PAMPA; read-out: permeability
[4] = biological target: T1, Amyloid-beta precursor protein; experiment: Inhibition of self-induced amyloid beta (1 to 42) (unknown origin) fibril formation at 20 uM after 24 hrs by uranyl acetate staining-based transmission electron microscopic method
[5] = tested on: Microtubule-associated protein tau (Mus musculus), P10637 [P243L]; experiment: Inhibition of congo red-induced EGFP-tagged Tau P301L mutant (unknown origin) aggregation expressed in HEK293T cells at 0.5 uM pretreated for 30 mins followed by congo red addition and measured after 24 hrs by DAPI staining-based fluorescence assay; format: cell-based; settings: Homo sapiens
Microtubule-associated protein tau (Mus musculus), P10637 [P243L], sequence (P10637 whole entry P243L): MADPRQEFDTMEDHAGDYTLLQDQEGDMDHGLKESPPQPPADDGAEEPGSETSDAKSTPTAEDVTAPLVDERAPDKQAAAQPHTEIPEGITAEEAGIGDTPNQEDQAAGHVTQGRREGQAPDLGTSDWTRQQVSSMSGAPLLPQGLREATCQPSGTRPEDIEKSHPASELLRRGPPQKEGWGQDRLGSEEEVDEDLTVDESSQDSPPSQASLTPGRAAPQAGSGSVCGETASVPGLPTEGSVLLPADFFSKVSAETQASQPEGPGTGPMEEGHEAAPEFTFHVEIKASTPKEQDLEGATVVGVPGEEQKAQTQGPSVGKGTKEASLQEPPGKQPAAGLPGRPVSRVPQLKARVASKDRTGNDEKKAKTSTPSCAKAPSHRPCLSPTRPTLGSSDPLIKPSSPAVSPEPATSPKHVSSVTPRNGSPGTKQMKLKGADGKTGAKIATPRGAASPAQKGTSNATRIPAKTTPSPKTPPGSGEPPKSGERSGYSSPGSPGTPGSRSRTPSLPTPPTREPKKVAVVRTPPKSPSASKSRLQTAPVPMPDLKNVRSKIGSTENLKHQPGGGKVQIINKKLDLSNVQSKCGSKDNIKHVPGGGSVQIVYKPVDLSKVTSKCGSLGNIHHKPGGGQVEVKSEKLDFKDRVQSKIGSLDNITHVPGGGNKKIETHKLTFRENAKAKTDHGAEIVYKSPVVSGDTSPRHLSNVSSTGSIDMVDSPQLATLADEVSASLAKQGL

[6] = Binding affinity to recombinant full length tau 0N4R (unknown origin) expressed in Escherichia coli by surface plasmon resonance assay; design: species or system Homo sapiens
[7] = species: Homo sapiens; experiment: Inhibition of fibril formation of recombinant full length tau 0N4R (unknown origin) expressed in Escherichia coli at 20 uM after 24 hrs by uranyl acetate staining-based transmission electron microscopic method
[8] = biological target: T1, Amyloid-beta precursor protein; experiment: Inhibition of amyloid beta (1 to 42) (unknown origin) beta-sheet formation at 20 uM after 24 hrs by CD spectroscopic method
[9] = biological target: T1, Amyloid-beta precursor protein; experiment: Binding affinity to amyloid beta (1 to 42) (unknown origin) by surface plasmon resonance assay
[10] = tested on: Microtubule-associated protein tau (Mus musculus), P10637 [P243L]; experiment: Inhibition of congo red-induced EGFP-tagged Tau P301L mutant (unknown origin) aggregation expressed in HEK293T cells at 1 uM pretreated for 30 mins followed by congo red addition and measured after 24 hrs by DAPI staining-based fluorescence assay; format: cell-based; settings: Homo sapiens
[11] = tested on: HEK-293T; experiment: Effect on proliferation of HEK293T cells transfected with EGFP-tagged Tau P301L mutant at 1 uM; format: cell-based; settings: human

Row | inhibition [1] [%] | inhibition [2] [%] | Papp at 10 h, 100 ug/ml [3] [×10⁻⁶ cm/s] | SMILES | also measured
1 | 46.2 | 4.2 | 2 | O=C1/C(=C/c2cccc(Cl)c2)CCc2nc3ccccc3cc21 | 
2 | 8.2 |  | 3.3 | Nc1c2c(nc3ccccc13)CC/C(=C\c1cccc([N+](=O)[O-])c1)C2=O | 
3 | 105 | 15.4 | 4.6 | C[n+]1c2c(c(N)c3ccccc31)C(=O)/C(=C\c1cccc(Cl)c1)CC2.[I-] | 
4 | 97.6 | 7.2 | 1.8 | C[n+]1c2c(c(N)c3ccccc31)C(=O)/C(=C\c1ccccc1)CC2.[I-] | 
5 | 2 | -3.8 | 1.3 | Nc1c2c(nc3ccccc13)CC/C(=C\C=C\c1ccccc1)C2=O | 
6 | 14.1 | -3.6 | 7.4 | Nc1c2c(nc3ccccc13)CC/C(=C\c1ccccc1Cl)C2=O | 
7 |  | 80.1 |  | CN(C)c1ccc2nc3ccc(=[N+](C)C)cc-3sc2c1 | 
8 | 34.2 | -3.1 | 1.1 | Nc1c2c(nc3ccccc13)CC/C(=C\c1cccc(Cl)c1)C2=O | 
9 | 91.9 | 98.3 | 4.1 | C[n+]1c2c(c(N)c3ccccc31)C(=O)/C(=C/c1cccc(Cl)c1)CC2.[I-] | 
10 | 98.7 | 86.3 | 3.6 | C[n+]1c2c(c(N)c3ccccc31)C(=O)/C(=C/c1cccc(F)c1)CC2.[I-] | 
11 | 89.1 | 23.3 | 2.7 | C[n+]1c2c(c(N)c3ccccc31)C(=O)/C(=C\c1cccc(F)c1)CC2.[I-] | 
12 | 20.3 | 4.9 | 5.3 | Nc1c2c(nc3ccccc13)CC/C(=C\c1cccc(F)c1)C2=O | 
13 |  |  |  | Oc1ccc(/C=C/c2cc(O)cc(O)c2)cc1 | inhibition [4]: Active
14 | -3.2 | 20.5 | 8.6 | O=C1/C(=C/c2ccccc2)CCc2nc3ccccc3cc21 | 
15 | -4 | 10 | 13.9 | Nc1c2c(nc3ccccc13)CCC(Cc1ccccc1)C2=O (stereo not given) | 
16 |  |  | 20.3 | Nc1c2c(nc3ccccc13)CC/C(=C/c1cccc(F)c1)C2=O | 
17 |  |  | 15.6 | Nc1c2c(nc3ccccc13)CC/C(=C/c1cccc(Cl)c1)C2=O | 
18 | 94.4 | 32 | 1.8 | C[n+]1c2c(c(N)c3ccccc31)C(=O)/C(=C\c1cccc([N+](=O)[O-])c1)CC2.[I-] | 
19 | 2.4 | -3.3 | 11.2 | Nc1c2c(nc3ccccc13)CC/C(=C\c1ccc([N+](=O)[O-])cc1)C2=O | 
20 | 91.2 | 79.2 | 3.5 | C[n+]1c2c(c(N)c3ccccc31)C(=O)/C(=C\c1cccc3ccccc13)CC2.[I-] | 
21 | 37 | 25.3 | 6.9 | Nc1c2c(nc3ccccc13)CC/C(=C\c1ccccc1F)C2=O | 
22 | 3.5 | 14.9 | 7.1 | O=C1/C(=C/c2ccccc2Cl)CCc2nc3ccccc3cc21 | 

Row | inhibition [1] [%] | inhibition [2] [%] | Papp at 10 h, 100 ug/ml [3] [×10⁻⁶ cm/s] | SMILES | also measured
23 | 24.8 | 7.1 | 30.3 | Nc1c2c(nc3ccccc13)CC/C(=C\c1ccc(Cl)cc1)C2=O | 
24 | -2 | 43.4 | 10.5 | COc1ccc(/C=C2\CCc3nc4ccccc4c(N)c3C2=O)cc1 | 
25 | 84.7 | 71.2 | 2.4 | C[n+]1c2c(c(N)c3ccccc31)C(=O)/C(=C/c1ccccc1)CC2.[I-] | 
26 | -6.8 |  | 49.5 | Nc1c2c(nc3ccccc13)CC/C(=C/c1cccc3ccccc13)C2=O | 
27 | 7.8 | -6.7 | 0.5 | Nc1c2c(nc3ccccc13)CC/C(=C\c1cccc3ccccc13)C2=O | 
28 |  |  | 9.1 | Nc1c2c(nc3ccccc13)CC/C(=C/c1cccc([N+](=O)[O-])c1)C2=O | 
29 | 7.2 | 14.7 | 17.2 | O=C1/C(=C/c2cccc(F)c2)CCc2nc3ccccc3cc21 | 
30 | 16.6 | 15.7 | 3.1 | Cc1c2c(nc3ccccc13)CC/C(=C\c1ccccc1)C2=O | 
31 |  |  |  | CN(C)c1ccc2c(c1)Sc1cc(N(C)C)ccc1N2 | inhibition [5]: 74.4%
32 | 94.9 | 31.6 | 1.7 | C[n+]1c2c(c(N)c3ccccc31)C(=O)/C(=C\c1cccs1)CC2.[I-] | 
33 | 86.4 | 98.2 | 2.1 | C[n+]1c2c(c(N)c3ccccc31)C(=O)/C(=C/c1cccc([N+](=O)[O-])c1)CC2.[I-] | 
34 | 15.2 | 30.7 | 16.2 | Nc1c2c(nc3ccccc13)CC/C(=C\c1ccco1)C2=O | 
35 |  |  | 13.3 | Nc1c2c(nc3ccccc13)CC/C(=C/c1ccccc1)C2=O | 
36 | 7.7 | 18.7 | 26.4 | Nc1c2c(nc3ccccc13)CC/C(=C\c1ccccc1)C2=O | 
37 | 7.9 | 44.3 | 7.5 | COc1cccc(/C=C2\CCc3nc4ccccc4c(N)c3C2=O)c1 | 
38 | 2.7 | 6.3 | 3.2 | O=C1/C(=C/c2ccc([N+](=O)[O-])cc2)CCc2nc3ccccc3cc21 | 
39 | -0.5 | 2.9 | 8.3 | O=C1/C(=C/c2ccccc2F)CCc2nc3ccccc3cc21 | 
40 | 14.5 | 11.9 | 7.2 | Nc1c2c(nc3ccccc13)CC/C(=C\c1cccs1)C2=O | 
41 |  |  |  | CN(C)c1ccc2nc3ccc(N(C)C)cc3[s+]c2c1 [METHYLENE BLUE ANHYDROUS] | Kd [6]: 28.2 µM
42 | 99.5 | 95.3 | 1.7 | C[n+]1c2c(c(N)c3ccccc31)C(=O)/C(=C/c1cccs1)CC2.[I-] | 
43 | 86.7 | 102 | 4.6 | C[n+]1c2c(c(N)c3ccccc31)C(=O)/C(=C/c1cccc3ccccc13)CC2.[I-] | inhibition [4]: Active; inhibition [7]: Active; inhibition [8]: Active; Kd [9]: 16 µM; Kd [6]: 33.7 µM; inhibition [10]: 62.6%; Activity [11]: Non-Toxic
44 |  | 5.9 | 10.8 | Nc1c2c(nc3ccccc13)CC/C(=C/c1cccs1)C2=O | 
